Measured values as given in patent publication US7381521B2, “Anti-pathogenic composition useful in blood preservation” (Altachem Pharma Ltd., priority 2001, dated 2008).

Key:
[1] = system: HIV-1 virus; assay: Infectivity of HIV-1 treated 10 minutes with product for normal human T lymphocytes (reverse transcriptase activity, ATI, in culture supernatants); assay type: cell-based
From the text: Infectivity is studied on T lymphocytes obtained from peripheral blood of a healthy human donor and separated on a Ficoll gradient.
The lymphocytes are stimulated for 3 days by phytohaemaglutinin P (PHA P) diluted to 1/500 and cultivated in a complete medium. The blastic cells T are infected by the virus, treated or not, in order to show up residual infectious strength.
The viruses obtained from a supernatant culture of an HIV-1 infected CEM line. This T lymphoblastoid line infected by HIV-1 is used for viral production.
The titer of the supernatant substances used is evaluated after quantitative analysis of the reverse transcriptase activity (ATI) of the virus.
In the following tests, a supernatant substance was used, the ATI of which was 1.8×10^6 cpm/ml.
Preparation of the viral solution: several tubes containing 1 ml viral supernatant, ATI 1.8×10^6 cmp/ml are, concentrated by ultracentrifugation. The resulting virus residues are taken up either by each of the different dilutions of QACs produced in sterile bidistilled water or by water (untreated control virus).
Treatment of viral preparations: the concentrated viral preparations are all treated according to the following procedure:
Treated virus samples: the virus residues concentrated by ultracentrifugation are resuspended in 100, μl of each of the concentrations in terms of products (QACs) studied and incubated for 10 minutes.
Control viral sample: untreated control virus: the product is replaced by 100 μl of sterile bidistilled water.
Following this 10 minute incubation time, the virus present in each sample is rinsed and then reconcentrated by addition of 12 ml of RPMI 1640 medium and ultracentrifugation. The virus residues are then taken up in 1 ml of complete medium and used for infecting normal human T lymphocytes.
Measurement of the infectivity of the samples: 4×10^6 normal human T lymphocytes are infected with each of the treated viral preparations or controls mentioned hereinabove. Infection of the T cells is carried out according to a previously described method (F. Barre Sinoussi et al. Science, 1983, 220:868-871): to sum up, 4×10^6 cells in suspension in 1 ml of complete medium are incubated with 1 ml of each of the treated vial preparations or controls for 1 hour at 37° C.
After two washings using several millilitres of culture medium, the cellular suspensions are adjusted to the concentration of 1×10^6 cells per ml. The day of the infection is regarded as day 0.
Viral production during the course of time is determined by measuring the reverse transcriptase activity present in the culture supernatants using the procedure described below.
This quantitative analysis makes it possible to evaluate the presence of noninactivated residual virus in the staring sample. It is carried out on a basis of 1 ml of culture supernatant taken every 2 or 3 days and ultracentrifuged.
The enzymatic activities are measured in 50 μl of a reaction mixture containing 50 mM Tris pH 7.8, 20 mM MgCl2, 20 mM KCl, 2 mM dithiotreitol, 0.25 OD/ml, oligo dT, 0.25 OD/ml poly rA, 0.1% Triton×100 and 2.5 μCi 3H DTTP.
After incubation for 1 hour at 37° C., the reaction is stopped by the addition of 10 μl of 0.2 M EDTA and the samples are deposited on DE81 membranes.
After several washings using 5% Na2HPO4, then by distilled water, the membranes are dried and the radioactivity measured by means of a p scintillation counter (PACKARD).

[2] = system: S. aureus ATCC 6538; assay: Test 2 (DGHM), action as a function of disinfection time at 22° C., 8 × 10^8 organisms/ml; assay type: cell-based, Staphylococcus aureus
Method: Another test was carried out a basis of the following solutions • 100 ml of a 0.1% solution of chlorohexidine digluconate (pH 6); and • 100 ml of a 0.1% solution of Bardac22®.
The activity of these solutions, alone or in combination, was more particularly tested in respect of Staphylococcus aureus ATCC 6538, Escherichia coli ATCC 11229 and Candida albicans ATCC 10231.
The tests were conducted in accordance with the procedure described in Chapter I/2.1 and 2.2 of Tichtlinien für die Prüfung und Bewertung chemischer Desinfektionsverfahren der DGHM/Guidelines for Testing and Evaluating Chemical Disinfection Processes of DGHM as at 1.1, 1981.

With `CCCCCCCCCC[N+](C)(C)CCCCCCCCCC.[Cl-]` [Bardac ®, didecyl dimethyl ammonium chloride] the ATI in supernatant ([1]; Bardac 0.0004%, J3) was 702 cpm/ml, the ATI in supernatant ([1]; Bardac 0.0004%, J6) was 18136 cpm/ml and the ATI in supernatant ([1]; Bardac 0.0004%, J10) was 117326 cpm/ml. For the same molecule, the ATI in supernatant ([1]; Bardac 0.0004%, J13) was 74214 cpm/ml, the ATI in supernatant ([1]; Bardac 0.0004%, J17) was 50674 cpm/ml and the ATI in supernatant ([1]; Bardac 0.0004%, J20) was 22478 cpm/ml. It also gave an ATI in supernatant ([1]; Bardac 0.0004%, J23) of 13806 cpm/ml, an ATI in supernatant ([1]; Bardac 0.0004%, J27) of 7800 cpm/ml and an ATI in supernatant ([1]; Bardac 0.0004%, J30) of 4426 cpm/ml. It also gave an ATI in supernatant ([1]; Bardac 0.002%, J3) of 464 cpm/ml, an ATI in supernatant ([1]; Bardac 0.002%, J6) of 2472 cpm/ml and an ATI in supernatant ([1]; Bardac 0.002%, J10) of 16066 cpm/ml. It also gave an ATI in supernatant ([1]; Bardac 0.002%, J13) of 24902 cpm/ml, an ATI in supernatant ([1]; Bardac 0.002%, J17) of 77754 cpm/ml and an ATI in supernatant ([1]; Bardac 0.002%, J20) of 75554 cpm/ml. It also gave an ATI in supernatant ([1]; Bardac 0.002%, J23) of 101394 cpm/ml, an ATI in supernatant ([1]; Bardac 0.002%, J27) of 80560 cpm/ml and an ATI in supernatant ([1]; Bardac 0.002%, J30) of 64692 cpm/ml. For the same molecule, the ATI in supernatant ([1]; Bardac 0.004%, J3) was 346 cpm/ml, the ATI in supernatant ([1]; Bardac 0.004%, J6) was 298 cpm/ml and the ATI in supernatant ([1]; Bardac 0.004%, J10) was 160 cpm/ml. For the same molecule, the ATI in supernatant ([1]; Bardac 0.004%, J13) was 170 cpm/ml, the ATI in supernatant ([1]; Bardac 0.004%, J17) was 350 cpm/ml and the ATI in supernatant ([1]; Bardac 0.004%, J20) was 218 cpm/ml. For the same molecule, the ATI in supernatant ([1]; Bardac 0.004%, J23) was 444 cpm/ml, the ATI in supernatant ([1]; Bardac 0.004%, J27) was 244 cpm/ml and the ATI in supernatant ([1]; Bardac 0.004%, J30) was 264 cpm/ml. It also gave an ATI in supernatant ([1]; Bardac 0.006%, J3) of 320 cpm/ml, an ATI in supernatant ([1]; Bardac 0.006%, J6) of 326 cpm/ml and an ATI in supernatant ([1]; Bardac 0.006%, J10) of 204 cpm/ml. It also gave an ATI in supernatant ([1]; Bardac 0.006%, J13) of 248 cpm/ml, an ATI in supernatant ([1]; Bardac 0.006%, J17) of 364 cpm/ml and an ATI in supernatant ([1]; Bardac 0.006%, J20) of 180 cpm/ml. The ATI in supernatant ([1]; Bardac 0.006%, J23) was 328 cpm/ml, the ATI in supernatant ([1]; Bardac 0.006%, J27) was 588 cpm/ml and the ATI in supernatant ([1]; Bardac 0.006%, J30) was 196 cpm/ml. For the same molecule, the ATI in supernatant ([1]; Bardac 0.01%, J3) was 334 cpm/ml, the ATI in supernatant ([1]; Bardac 0.01%, J6) was 222 cpm/ml and the ATI in supernatant ([1]; Bardac 0.01%, J10) was 1768 cpm/ml. The ATI in supernatant ([1]; Bardac 0.01%, J13) was 1592 cpm/ml, the ATI in supernatant ([1]; Bardac 0.01%, J17) was 190 cpm/ml and the ATI in supernatant ([1]; Bardac 0.01%, J20) was 390 cpm/ml. The ATI in supernatant ([1]; Bardac 0.01%, J23) was 1328 cpm/ml, the ATI in supernatant ([1]; Bardac 0.01%, J27) was 780 cpm/ml and the ATI in supernatant ([1]; Bardac 0.01%, J30) was 1000 cpm/ml. For the same molecule, the growth ([2]; 0.05% vol/vol, 1 min) was “+”, the growth ([2]; 0.05% vol/vol, 3 min) was “+” and the growth ([2]; 0.05% vol/vol, 5 min) was “+”. For the same molecule, the growth ([2]; 0.05% vol/vol, 15 min) was “+”, the growth ([2]; 0.05% vol/vol, 30 min) was “+” and the growth ([2]; 0.05% vol/vol, 60 min) was “+”. For the same molecule, the growth ([2]; 0.1% vol/vol, 1 min) was “+”, the growth ([2]; 0.1% vol/vol, 3 min) was “+” and the growth ([2]; 0.1% vol/vol, 5 min) was “+”. For the same molecule, the growth ([2]; 0.1% vol/vol, 15 min) was “+”, the growth ([2]; 0.1% vol/vol, 30 min) was “+” and the growth ([2]; 0.1% vol/vol, 60 min) was “+”. The growth ([2]; 0.5% vol/vol, 1 min) was “+”, the growth ([2]; 0.5% vol/vol, 3 min) was “+” and the growth ([2]; 0.5% vol/vol, 5 min) was “+”. For the same molecule, the growth ([2]; 0.5% vol/vol, 15 min) was “+”, the growth ([2]; 0.5% vol/vol, 30 min) was “+” and the growth ([2]; 0.5% vol/vol, 60 min) was “+”. For the same molecule, the growth ([2]; 1% vol/vol, 1 min) was “+”, the growth ([2]; 1% vol/vol, 3 min) was “+” and the growth ([2]; 1% vol/vol, 5 min) was “+”. The growth ([2]; 1% vol/vol, 15 min) was “+”, the growth ([2]; 1% vol/vol, 30 min) was “−” and the growth ([2]; 1% vol/vol, 60 min) was “−”. For the same molecule, the growth ([2]; 5% vol/vol, 1 min) was “+”, the growth ([2]; 5% vol/vol, 3 min) was “+” and the growth ([2]; 5% vol/vol, 5 min) was “+”. For the same molecule, the growth ([2]; 5% vol/vol, 15 min) was “−”, the growth ([2]; 5% vol/vol, 30 min) was “−” and the growth ([2]; 5% vol/vol, 60 min) was “−”. The growth ([2]; 10% vol/vol, 1 min) was “+”, the growth ([2]; 10% vol/vol, 3 min) was “−” and the growth ([2]; 10% vol/vol, 5 min) was “−”. For the same molecule, the growth ([2]; 10% vol/vol, 15 min) was “−”, the growth ([2]; 10% vol/vol, 30 min) was “−” and the growth ([2]; 10% vol/vol, 60 min) was “−”. The growth ([2]; 25% vol/vol, 1 min) was “+”, the growth ([2]; 25% vol/vol, 3 min) was “−” and the growth ([2]; 25% vol/vol, 5 min) was “−”. For the same molecule, the growth ([2]; 25% vol/vol, 15 min) was “−”, the growth ([2]; 25% vol/vol, 30 min) was “−” and the growth ([2]; 25% vol/vol, 60 min) was “−”.
